T/C data for 20 compounds are collected here from PubChem BioAssay AID248 (DTP/NCI, 2004).

Values joined by “and” are separate entries in the source; they are usually repeats but may differ in a detail not shown here. Equal values may be shown once. Toxic doses and inconclusive results are not listed.

The assay relates to L1210 leukemia ip in BDF1 mice, survival T/C. Kind of assay: NCI In Vivo Anticancer Drug Screen. Data for tumor model L1210 Leukemia (intraperitoneal) in B6D2F1 (BDF1) mice. The following applies: endpoint: mean survival time, higher = longer survival. The essentials:
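Transplanted-tumor mice were given test agent; controls received vehicle only. Survival readings from the two groups were divided (treated over control).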

[1] abbreviates: dose: 44.0 mg/kg/injection, schedule: Q01DX001 (ip), vehicle: saline.
The mark [2] stands for this setting: dose: 100.0 mg/kg/injection, schedule: Q01DX001 (ip), vehicle: saline.
[3] abbreviates: dose: 100.0 mg/kg/injection, schedule: Q04DX003 (ip), vehicle: Klucel (hydroxypropylcellulose) (HPC).
The mark [4] stands for this setting: dose: 200.0 mg/kg/injection, schedule: Q01DX001 (ip), vehicle: saline.
Setting [5] is: dose: 200.0 mg/kg/injection, schedule: Q04DX003 (ip), vehicle: Klucel (hydroxypropylcellulose) (HPC).
[6] abbreviates: dose: 400.0 mg/kg/injection, schedule: Q01DX001 (ip), vehicle: saline.
[7] abbreviates: dose: 100.0 mg/kg/injection, schedule: Q01DX009 (ip), vehicle: Klucel (hydroxypropylcellulose) (HPC).
Setting [8] is: dose: 200.0 mg/kg/injection, schedule: Q01DX009 (ip), vehicle: Klucel (hydroxypropylcellulose) (HPC).
[9] abbreviates: dose: 400.0 mg/kg/injection, schedule: Q01DX009 (ip), vehicle: Klucel (hydroxypropylcellulose) (HPC).
[10] abbreviates: dose: 100.0 mg/kg/injection, schedule: Q01DX009 (ip), vehicle: saline with Tween-80.
Where [11] appears, read: dose: 200.0 mg/kg/injection, schedule: Q01DX009 (ip), vehicle: saline with Tween-80.
Setting [12] is: dose: 12.0 mg/kg/injection, schedule: Q01DX009 (ip), vehicle: saline with Tween-80.
Where [13] appears, read: dose: 400.0 mg/kg/injection, schedule: Q04DX003 (ip), vehicle: Klucel (hydroxypropylcellulose) (HPC).
Setting [14] is: dose: 100.0 mg/kg/injection, schedule: Q04DX003 (ip), vehicle: saline with Tween-80.
Where [15] appears, read: dose: 200.0 mg/kg/injection, schedule: Q04DX003 (ip), vehicle: saline with Tween-80.
[16] abbreviates: dose: 400.0 mg/kg/injection, schedule: Q04DX003 (ip), vehicle: saline with Tween-80.

In the case of `C1O[C@@H]1[C@@H]1CO1`, the T/C was 110 % of control (dose: 10.5 mg/kg/injection, schedule: Q01DX015 (ip), vehicle: saline); 110 % of control (dose: 18.0 mg/kg/injection, schedule: Q01DX015 (ip), vehicle: saline); 111 % of control and 116 % of control under setting [1]; 150 % of control (dose: 66.0 mg/kg/injection, schedule: Q01DX001 (ip), vehicle: saline); 173 % of control under setting [2]; 167 % of control (dose: 100.0 mg/kg/injection, schedule: Q01DX010 (ip), vehicle: water). Moreover, the T/C reads like this: (dose: 200.0 mg/kg/injection, schedule: Q01DX010 (ip), vehicle: water) 186 % of control; (dose: 400.0 mg/kg/injection, schedule: Q01DX010 (ip), vehicle: water) 189 % of control; (dose: 600.0 mg/kg/injection, schedule: Q01DX010 (ip), vehicle: water) 157 % of control.

`CCCCCCCCCCCCOCCCCCCCCCCCC`: the T/C (dose: 100.0 mg/kg/injection, schedule: Q01DX009 (sc), vehicle: olive oil, sesame oil, peanut oil) is 104 % of control; the T/C (dose: 100.0 mg/kg/injection, schedule: Q04DX003 (sc), vehicle: olive oil, sesame oil, peanut oil) is 114 % of control; the T/C (dose: 200.0 mg/kg/injection, schedule: Q01DX009 (sc), vehicle: olive oil, sesame oil, peanut oil) was 100 % of control; the T/C (dose: 200.0 mg/kg/injection, schedule: Q04DX003 (sc), vehicle: olive oil, sesame oil, peanut oil) is 106 % of control; the T/C (dose: 400.0 mg/kg/injection, schedule: Q01DX009 (sc), vehicle: olive oil, sesame oil, peanut oil) is 102 % of control; the T/C (dose: 400.0 mg/kg/injection, schedule: Q04DX003 (sc), vehicle: olive oil, sesame oil, peanut oil) was 104 % of control.

Regarding `CC12CCC(O)CC1CCC1C2CCC2(C)C(c3ccc(=O)oc3)CC3OC312` (stereo not drawn), the T/C (dose: 50.0 mg/kg/injection, schedule: Q01DX001 (sc), vehicle: steriod suspending solution) is 105 % of control; the T/C (dose: 100.0 mg/kg/injection, schedule: Q01DX001 (sc), vehicle: steriod suspending solution) is 105 % of control; the T/C (dose: 200.0 mg/kg/injection, schedule: Q01DX001 (sc), vehicle: steriod suspending solution) was 96 % of control; the T/C (dose: 400.0 mg/kg/injection, schedule: Q01DX001 (sc), vehicle: steriod suspending solution) is 100 % of control.

In the case of `C=CCCCCCCCCCC`, the T/C was 97 % of control (dose: 50.0 mg/kg/injection, schedule: Q04DX003 (ip), vehicle: Klucel (hydroxypropylcellulose) (HPC)); 98 % of control under setting [2]; 95 % of control under setting [3]; 101 % of control under setting [4]; 97 % of control under setting [5]; 96 % of control under setting [6].

For the compound `O=C(CN1C(=O)C(=O)O/C1=C/c1ccccc1)OCc1ccccc1`, the T/C was 105 % of control under setting [7] and 103 % of control under setting [8].

Consider `CN(C)c1ccc(/C=C/c2nc3ccccc3o2)cc1`, for which the T/C under setting [7] is 95 % of control, the T/C under setting [8] was 95 % of control and the T/C under setting [9] is 94 % of control.

On to `CCCCCCP(=O)(CCCCCC)CCCCCC` (tested in a mixture with another compound), for which the T/C runs as follows: under setting [10], 100 % of control; under setting [11], 86 % of control.

Regarding `CCC[CH2][Sn]1([CH2]CCC)[O]C(=O)C2C(C(=O)[O]1)C1(Cl)C(Cl)=C(Cl)C2(Cl)C1(Cl)Cl` (stereo not drawn), the T/C reads like this: under setting [1], 98 % of control; (dose: 45.0 mg/kg/injection, schedule: Q01DX001 (ip), vehicle: saline) 97 % of control; (dose: 67.0 mg/kg/injection, schedule: Q01DX001 (ip), vehicle: saline) 95 % of control and 101 % of control; under setting [2], 98 % of control and 103 % of control; (dose: 150.0 mg/kg/injection, schedule: Q01DX001 (ip), vehicle: saline) 123 % of control.

As for `CC(C)C1C(C(=O)O)NC(=O)C1C(=O)O` (stereo not drawn), the T/C under setting [12] was 106 % of control; the T/C (dose: 25.0 mg/kg/injection, schedule: Q01DX009 (ip), vehicle: Klucel (hydroxypropylcellulose) (HPC)) is 106 % of control; the T/C (dose: 25.0 mg/kg/injection, schedule: Q01DX009 (ip), vehicle: saline with Tween-80) was 99 % of control; the T/C (dose: 50.0 mg/kg/injection, schedule: Q01DX009 (ip), vehicle: saline with Tween-80) was 97 % of control; the T/C under setting [7] is 108 % of control; the T/C under setting [3] was 96 % of control. Besides, the T/C is, setting by setting: under setting [5], 98 % of control; under setting [13], 95 % of control.

For the compound `O=C(/C(=C/c1ccc(F)cc1)c1ccccc1)c1ccc(O)cc1`, the T/C (dose: 100.0 mg/kg/injection, schedule: Q01DX001 (ip), vehicle: carboxymethylcellulose (CMC)) was 92 % of control; the T/C (dose: 200.0 mg/kg/injection, schedule: Q01DX001 (ip), vehicle: carboxymethylcellulose (CMC)) was 110 % of control; the T/C (dose: 400.0 mg/kg/injection, schedule: Q01DX001 (ip), vehicle: carboxymethylcellulose (CMC)) was 94 % of control.

On to `Cc1cc2c(cc1C)C1(c3ccc(Cl)cc3)OC2(c2ccc(Cl)cc2)C2C(=O)OC(=O)C21` (stereo not drawn), for which the T/C is 94 % of control (dose: 100.0 mg/kg/injection, schedule: Q01DX001 (ip), vehicle: Klucel (hydroxypropylcellulose) (HPC)); 92 % of control (dose: 200.0 mg/kg/injection, schedule: Q01DX001 (ip), vehicle: Klucel (hydroxypropylcellulose) (HPC)); 97 % of control (dose: 400.0 mg/kg/injection, schedule: Q01DX001 (ip), vehicle: Klucel (hydroxypropylcellulose) (HPC)).

With `N=C(N)SCc1ccc(Br)cc1`, the T/C is 104 % of control under setting [2] and 112 % of control under setting [4].

In the case of `O=C(O)c1cc(C(=O)O)cc(S(=O)(=O)F)c1`, the T/C was 92 % of control under setting [10]; 91 % of control under setting [14]; 88 % of control under setting [11]; 86 % of control under setting [15]; 97 % of control (dose: 400.0 mg/kg/injection, schedule: Q01DX009 (ip), vehicle: saline with Tween-80); 99 % of control under setting [16].

For the compound `O=c1c(Br)c(-c2ccccc2)nc2ccccn12`, the T/C (dose: 25.0 mg/kg/injection, schedule: Q01DX001 (ip), vehicle: saline with Tween-80) is 91 % of control; the T/C (dose: 50.0 mg/kg/injection, schedule: Q01DX001 (ip), vehicle: saline with Tween-80) was 91 % of control; the T/C (dose: 100.0 mg/kg/injection, schedule: Q01DX001 (ip), vehicle: saline with Tween-80) was 95 % of control.

Regarding `CC(N)(COC(=O)c1ccccc1)C(=O)O` (stereo not drawn), the T/C is 107 % of control (dose: 100.0 mg/kg/injection, schedule: Q04DX003 (ip), vehicle: saline); 96 % of control (dose: 200.0 mg/kg/injection, schedule: Q04DX003 (ip), vehicle: saline); 98 % of control (dose: 400.0 mg/kg/injection, schedule: Q04DX003 (ip), vehicle: saline).

Consider `CCOC(=O)c1c[n]([Hg][n]2cc(C(=O)OCC)c(Nc3ccccc3Cl)nc2=O)c(=O)nc1Nc1ccccc1Cl`, for which the T/C runs as follows: (dose: 3.0 mg/kg/injection, schedule: Q01DX009 (ip), vehicle: saline with Tween-80) 96 % of control; (dose: 6.0 mg/kg/injection, schedule: Q01DX009 (ip), vehicle: saline with Tween-80) 96 % of control; under setting [12], 95 % of control; (dose: 12.5 mg/kg/injection, schedule: Q04DX003 (ip), vehicle: saline with Tween-80) 100 % of control.

On to `Cc1ccc(N=C=S)cc1F`, for which the T/C (dose: 75.0 mg/kg/injection, schedule: Q01DX001 (ip), vehicle: other) is 95 % of control.

With `O=c1cc(-c2ccccc2)nc(Nc2nc3ccc([N+](=O)[O-])cc3[nH]2)[nH]1`, the T/C is 95 % of control under setting [7]; 100 % of control under setting [3]; 95 % of control under setting [8]; 103 % of control under setting [5]; 87 % of control under setting [9]; 106 % of control under setting [13].

In the case of `CCC(C#N)(CC)c1ccccc1`, the T/C runs as follows: (dose: 50.0 mg/kg/injection, schedule: Q01DX001 (ip), vehicle: saline) 113 % of control; under setting [2], 107 % of control; under setting [4], 89 % of control; under setting [6], 101 % of control.

Turning to `COP(=O)(OC)C(OC(=O)C(C)C)=C(C)C`, the T/C is 112 % of control under setting [14], 110 % of control under setting [15] and 102 % of control under setting [16].
